Where a name gives a salt, the structure may show the parent alone.
The compounds below were run against T1, recombinant guanylate cyclase reporter cell line (Rattus norvegicus, UniProt P19686+P20595) (assay: B-2. Action on recombinant guanylate cyclase reporter cell line). Settings: MEC = minimal effective concentration; in some cases mean values from individual determinations.
T1 construct: expressed in transfected cells
T1 sequence (P20595 1-619): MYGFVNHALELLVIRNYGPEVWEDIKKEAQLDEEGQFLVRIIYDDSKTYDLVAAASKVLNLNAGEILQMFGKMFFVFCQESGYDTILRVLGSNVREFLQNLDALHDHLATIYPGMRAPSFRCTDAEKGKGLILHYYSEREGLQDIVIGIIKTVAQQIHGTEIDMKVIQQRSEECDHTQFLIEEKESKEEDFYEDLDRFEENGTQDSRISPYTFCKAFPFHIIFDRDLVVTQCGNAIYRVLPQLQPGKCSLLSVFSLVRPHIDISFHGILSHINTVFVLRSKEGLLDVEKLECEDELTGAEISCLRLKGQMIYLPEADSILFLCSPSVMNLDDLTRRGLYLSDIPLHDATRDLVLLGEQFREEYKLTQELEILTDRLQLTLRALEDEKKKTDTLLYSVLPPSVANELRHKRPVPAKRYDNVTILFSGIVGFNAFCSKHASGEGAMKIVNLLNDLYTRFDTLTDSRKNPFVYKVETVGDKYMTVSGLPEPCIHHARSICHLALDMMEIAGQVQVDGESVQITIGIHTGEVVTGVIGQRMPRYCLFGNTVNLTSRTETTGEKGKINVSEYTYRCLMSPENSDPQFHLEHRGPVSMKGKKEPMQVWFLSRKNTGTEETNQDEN
T1 sequence (P19686 1-690): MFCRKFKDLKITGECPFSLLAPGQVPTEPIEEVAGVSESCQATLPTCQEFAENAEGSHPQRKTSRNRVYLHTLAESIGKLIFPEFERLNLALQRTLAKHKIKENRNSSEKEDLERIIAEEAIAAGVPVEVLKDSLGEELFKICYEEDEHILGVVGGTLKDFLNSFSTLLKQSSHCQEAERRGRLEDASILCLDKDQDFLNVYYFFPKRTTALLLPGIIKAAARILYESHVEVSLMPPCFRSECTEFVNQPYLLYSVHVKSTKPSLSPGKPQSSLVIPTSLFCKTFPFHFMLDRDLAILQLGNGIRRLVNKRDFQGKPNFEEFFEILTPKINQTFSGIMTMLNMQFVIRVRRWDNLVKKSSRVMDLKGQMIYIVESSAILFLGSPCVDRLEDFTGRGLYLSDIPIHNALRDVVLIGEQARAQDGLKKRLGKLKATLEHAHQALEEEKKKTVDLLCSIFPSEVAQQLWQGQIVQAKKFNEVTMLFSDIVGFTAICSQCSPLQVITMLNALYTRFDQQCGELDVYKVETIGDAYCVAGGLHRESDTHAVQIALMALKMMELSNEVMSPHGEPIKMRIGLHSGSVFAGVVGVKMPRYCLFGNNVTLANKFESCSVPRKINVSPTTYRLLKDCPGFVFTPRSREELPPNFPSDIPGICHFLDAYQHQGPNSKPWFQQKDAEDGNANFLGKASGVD
Format: cell-based
Method in brief: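 MEC values, meaning the lowest concentration producing a detectable response, were taken from a recombinant cyclase reporter cell assay. Where repeated, individual determinations were averaged.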

Structure (SMILES)	MEC [µM]
CCOCC(CN)NC(=O)c1c(C)nc2c(OCc3c(F)cccc3F)cc(Cl)cn12 (single isomer, unassigned) [Example 57, ent-N-(1-amino-3-ethoxypropan-2-yl)-6-chloro-8-[(2,6-difluorobenzyl)oxy]-2-methylimidazo[1,2-a]-pyridine-3-carboxamide]	0.30
Cc1nc2c(OCc3c(F)cccc3F)cccn2c1C(=O)NCC(C)CN (single isomer, unassigned) [Example 96, ent-N-(3-Amino-2-methylpropyl)-8-[(2,6-difluorobenzyl)oxy]-2-methylimidazo[1,2-a]pyridine-3-carboxamide Dihydrochloride]	1.00
Cc1nc2c(OCc3c(F)cccc3F)cccn2c1C(=O)NC(CN)c1ccc(Cl)cc1 (racemic) [Example 14, rac-N-[2-Amino-1-(4-chlorophenyl)ethyl]-8-[(2,6-difluorobenzyl)oxy]-2-methylimidazo[1,2-a]-pyridine-3-carboxamide Dihydrochloride]	1.00
Cc1nc2c(OCc3c(F)cccc3F)cc(Cl)cn2c1C(=O)NC(C)C1CCN(C)CC1 (racemic) [Example 78, rac-6-chloro-8-[(2,6-difluorobenzyl)oxy]-2-methyl-N-[1-(1-methylpiperidin-4-yl)ethyl]-imidazo[1,2-a]pyridine-3-carboxamide]	1.00
Cc1nc2c(OCc3c(F)cccc3F)cccn2c1C(=O)NC(CN)CC(C(F)(F)F)C(F)(F)F (racemic) [Example 5, rac-N-[1-amino-5,5,5-trifluoro-4-(trifluoromethyl)pentan-2-yl]-8-[(2,6-difluorobenzyl)oxy]-2-methylimidazo[1,2-a]-pyridine-3-carboxamide trifluoroacetate]	1.00
Cc1nc2c(OCc3c(F)cccc3F)cccn2c1C(=O)NC1CC(C)(C)NC(C)(C)C1 [Example 82, 8-[(2,6-Difluorobenzyl)oxy]-2-methyl-N-(2,2,6,6-tetramethylpiperidin-4-yl)imidazo[1,2-a]-pyridine-3-carboxamide]	0.20
Cc1nc2c(OCc3c(F)cccc3F)cccn2c1C(=O)NC1CNc2ccccc21 (single isomer, unassigned; ent-8) [Example 47, ent-8-[(2,6-Difluorobenzyl)oxy]-N-(2,3-dihydro-1H-indol-3-yl)-2-methylimidazo[1,2-a]pyridine-3-carboxamide]	0.30
Cc1cc(OCc2c(F)cccc2F)c2nc(C)c(C(=O)NCCN3CC(N4CCCC4)C3)n2c1 [Example 162, 8-[(2,6-difluorobenzyl)oxy]-2,6-dimethyl-N-{2-[3-(pyrrolidin-1-yl)azetidin-1-yl]ethyl}imidazo[1,2-a]pyridine-3-carboxamide]	3.00
Cc1nc2c(OCc3c(F)cccc3F)cccn2c1C(=O)NC(CN)COc1ccc(F)c(F)c1 (stereo not drawn) [Example 124, ent-N-[1-Amino-3-(3,4-difluorophenoxy)propan-2-yl]-8-[(2,6-difluorobenzyl)oxy]-2-methylimidazo[1,2-a]pyridine-3-carboxamide Ditrifluoroacetate]	1.00
Cc1nc2c(OCc3cccc(F)c3F)cccn2c1C(=O)NC(CN)c1ccc(F)c(F)c1 (stereo not drawn) [Example 99, ent-N-[2-amino-1-(3,4-difluorophenyl)ethyl]-8-[(2,3-difluorobenzyl)oxy]-2-methylimidazo[1,2-a]pyridine-3-carboxamide]	1.00
Cc1nc2c(OCc3c(F)cccc3F)cccn2c1C(=O)NCCN1CCN(C)CC1 [Example 133, 8-[(2,6-difluorobenzyl)oxy]-2-methyl-N-[2-(4-methylpiperazin-1-yl)ethyl]imidazo[1,2-a]-pyridine-3-carboxamide]	3.00
Cc1nc2c(OCc3c(F)cccc3F)cccn2c1C(=O)NC1CNc2ccccc2C1 (racemic) [Example 75, rac-8-[(2,6-Difluorobenzyl)oxy]-2-methyl-N-(1,2,3,4-tetrahydroquinolin-3-yl)imidazo[1,2-a]-pyridine-3-carboxamide]	1.00
Cc1nc2c(OCc3c(F)cccc3F)cccn2c1C(=O)NC(CN)c1ccccc1 (racemic) [Example 16, rac-N-(2-Amino-1-phenylethyl)-8-[(2,6-difluorobenzyl)oxy]-2-methylimidazo[1,2-a]pyridine-3-carboxamide Dihydrochloride]	0.30

Continued, values first:

MEC [µM]	Structure (SMILES)
0.30	Cc1cc(OCc2c(F)cccc2F)c2nc(C)c(C(=O)NC(CN)c3ccc4c(c3)OCO4)n2c1 (racemic) [Example 381, rac-N-[2-amino-1-(1,3-benzodioxol-5-yl)ethyl]-8-[(2,6-difluorobenzyl)oxy]-2,6-dimethylimidazo[1,2-a]pyridine-3-carboxamide]
0.10	CCCC(C)(N)CNC(=O)c1c(C)nc2c(OCc3c(F)cccc3F)cc(C)cn12 (single isomer, unassigned) [Example 233, ent-N-(2-Amino-2-methylpentyl)-8-[(2,6-difluorobenzyl)oxy]-2,6-dimethylimidazo[1,2-a]pyridine-3-carboxamide]
3.00	Cc1cc(OCc2c(F)cccc2F)c2nc(C)c(C(=O)NCC(N)c3cccc(OC(F)F)c3)n2c1 (racemic) [Example 375, rac-N-{2-amino-2-[3-(difluoromethoxy)phenyl]ethyl}-8-[(2,6-difluorobenzyl)oxy]-2,6-dimethylimidazo[1,2-a]pyridine-3-carboxamide]
1.00	Cc1nc2c(OCc3c(F)cccc3F)cccn2c1C(=O)NCC(N)C(F)(F)F (racemic) [Example 207, rac-N-(2-Amino-3,3,3-trifluoropropyl)-8-[(2,6-difluorobenzyl)oxy]-2-methylimidazo[1,2-a]-pyridine-3-carboxamide]
0.30	Cc1cc(OCc2c(F)cccc2F)c2nc(C)c(C(=O)NC(CN)c3cccc(Br)c3)n2c1 (racemic) [Example 383, rac-N-[2-amino-1-(3-bromophenyl)ethyl]-8-[(2,6-difluorobenzyl)oxy]-2,6-dimethylimidazo[1,2-a]pyridine-3-carboxamide]
0.30	Cc1cc(OCc2c(F)cccc2F)c2nc(C)c(C(=O)NCC(N)C(C)C)n2c1 (single isomer, unassigned) [Example 223, ent-N-(2-Amino-3-methylbutyl)-8-[(2,6-difluorobenzyl)oxy]-2,6-dimethylimidazo[1,2-a]pyridine-3-carboxamide]
0.03	CCCC(C)(N)CNC(=O)c1c(C)nc2c(OCc3c(F)ccc(F)c3F)cc(C)cn12 (racemic) [Example 293, rac-N-(2-amino-2-methylpentyl)-2,6-dimethyl-8-[(2,3,6-trifluorobenzyl)oxy]imidazo[1,2-a]pyridine-3-carboxamide]
0.03	Cc1cc(OCc2c(F)ccc(F)c2F)c2nc(C)c(C(=O)NCC(C)(N)CCC(F)(F)F)n2c1 (single isomer, unassigned; enantiomer b) [Example 411, ent-N-(2-amino-5,5,5-trifluoro-2-methylpentyl)-2,6-dimethyl-8-[(2,3,6-trifluorobenzyl)oxy]imidazo[1,2-a]pyridine-3-carboxamide (Enantiomer B)]
1.00	COCC(N)CNC(=O)c1c(C)nc2c(OCc3c(F)cccc3F)cccn12 (single isomer, unassigned; enantiomer b) [Example 248, ent-N-(2-Amino-3-methoxypropyl)-8-[(2,6-difluorobenzyl)oxy]-2-methylimidazo[1,2-a]pyridine-3-carboxamide (Enantiomer B)]
1.00	Cc1cc(OCc2c(F)cccc2F)c2nc(C)c(C(=O)NC(CN)c3cccc(OCCO)c3)n2c1 (racemic) [Example 393, rac-N-{2-amino-1-[3-(2-hydroxyethoxy)phenyl]ethyl}-8-[(2,6-difluorobenzyl)oxy]-2,6-dimethylimidazo[1,2-a]pyridine-3-carboxamide]
1.00	Cc1cc(OCc2c(F)cccc2F)c2nc(C)c(C(=O)NC3CCC4NCCC43)n2c1 (racemic) [Example 342, rac-8-[(2,6-Difluorobenzyl)oxy]-2,6-dimethyl-N-(octahydrocyclopenta[b]pyrrol-4-yl)imidazo[1,2-a]pyridine-3-carboxamide]

Source: US9624214B2, “Amino-substituted imidazo[1,2-a]pyridinecarboxamides and their use” (BAYER PHARMA AKTIENGESELLSCHAFT, priority 2012, dated 2017)
